Assay results reported in US20260083769A1, “2-Aminopropane-1,3-Diol-Capped Cationic Peptoids for Nucleic Acid Delivery” (NUTCRACKER THERAPEUTICS, INC., priority 2022, published 2026).
Entries after “also recorded” stand apart in the source; their conditions may differ. Where two headings read alike, the source gives them in different places. Where a SMILES comes first, the peptide text is derived from it. [ ]: non-standard residue; d: D form. N(2-ethylhexyl)Gly = CCCCC(CC)CNCC(=O)O; Gly(N-dodecyl) = CCCCCCCCCCCCNCC(=O)O; N(CH(CH2OH)2)Gly = O=C(O)CNC(CO)CO; NHexGly = CCCCCCNCC(=O)O

Columns and labels:
[1] = Apparent particle pKa, TNS fluorescence assay; format: physicochemical; details: Table 5; apparent particle pKa of delivery vehicle
Description: The apparent particle pKa was assessed by a TNS fluorescence assay. Briefly, particles were diluted to 130 uM total lipid in TNS buffer ranging in pH 3-11 for 10 minutes with […] of TNS probe. The fluorescence was measured at room temperature in a plate reader ex 320/em 445. Fluorescence intensity was normalized to the minimal and maximal values and the pKa was determined by a 3 parameter fit to determine the half maximum of the curve.

[2] = RBC hemolysis as metric for fusogenicity; format: cell-based; details: sheep red blood cells (RBCs), 5% v/v, Table 5, delivery vehicle, 37° C. 45 min
In short: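 Sheep RBCs at 5% v/v in 20 mM citrate/140 mM NaCl pH 5.5 or PBS, exposed to LNPs at […] in well, 37 °C for 45 min. Supernatant absorbance at 425 nm; % hemolysis normalized to 2% Triton full lysis and buffer-only control.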

BALB/c mice = test: In vivo fLuc mRNA expression after IV dose, whole body and organ bioluminescence; details: for fLuc (luciferase) expression in vivo: BALB/c mice, IV, luminescence 6 hours after dose, lipid block screen; for luciferase expression in vivo, comparison of monomer order isomers: Compound 31 versus Compound 41
Excerpt: In one particular instance, peptoids disclosed herein were formulated into delivery vehicles by first dissolving in ethanol along with DSPC, cholesterol, and DMG-PEG2000 at weight ratio of 20:1.8:7.2:1.8 (Formulation D22 in Table 3, above), then mixed with firefly luciferase (fLuc) mRNA dissolved in an aqueous buffer at a volume ratio of 1:3 via microfluidic nanoprecipitation on a turbulent mixing device, resulting in small, low dispersity particles. Physical particle properties were characterized. Delivery vehicles with initial sizes larger than 120 nm were not brought forward into in vivo screening as liver fenestrae primarily accommodate LNPs sized under 100 nm. In vivo expression of delivery vehicles comprising peptoids with varied headgroups was evaluated using fLuc expression in BALB/c mice 6 hours after IV dose (FIG. 1). […] The aminoethyl and aminopropyl headgroups both show preferential expression in lung (FIG. 2), potentially due to the high basicity of the pendant primary amine, as groups with higher pKas are known to accumulate in that organ. […] While spleen and lung selectivity merit further optimization for future therapeutic applications, liver-selective targets were used for further studies herein to prepare for systemic delivery of antibody targets and maximize their serum expression with anti-RSV cargo.
Intravenous administration. The delivery vehicle complexes disclosed herein are effective for in vivo administration of Fluc mRNA to BALB/c mice through multiple routes of administration. In general, delivery system complexes were administered at a dose of 0.5 mg/kg via a tail-vein injection, and the resulting bioluminescence was quantified after 6 hours. Organ-specific bioluminescence was quantified by sacrificing the treated animal, dissecting out the organs of interest, and separately quantifying the resulting bioluminescence
In one particular instance, to investigate how the peptoid lipid block impacts in vivo expression, delivery vehicles with diameter larger than 120 nm were excluded and remaining candidates were administered IV to BALB/c mice. Luminescence was measured after 6 hours and the resulting expression in liver, lung and spleen were quantified. Even without changing the cationic headgroup, luciferase expression spanned 4 orders of magnitude as a result of altering the lipid block in this series. […] In vivo expression of all candidates was then fit to a multi-parameter model containing the 4 input parameters to understand the individual contributions of each factor to overall performance. […] Contour plots of the impact of these factors on expression (all using Ehx as the branched/unsaturated monomer) are shown in FIG. 4.
For imaging studies, female BALB/c mice (6-8 weeks old) were obtained and acclimatized for a minimum of 3 days prior to experiments. The animals were maintained on a 12 hour light cycle in a temperature and humidity controlled room. A daily health check was performed as well as food and water check. For dosing, mice were injected with 2.5 μg fLuc mRNA-containing delivery vehicles intravenously in 100 μL total injection volume. At 6 hours post-injection, mice were anesthetized with isoflurane, and injected intraperitoneally with 30 mg/mL D-luciferin at a dose of 10 μL per gram bodyweight intraperitoneally. Imaging was done 10 minutes post D-luciferin injection using an IVIS® Spectrum Imaging System. Immediately after in vivo imaging, mice were terminally bled by cardiac puncture and euthanized. The organs of interest were harvested, placed in black 24-well plates, and imaged. Living Image® software was used to quantify the total photon flux in regions of interest. For secreted protein studies, mice were injected with aRSV mRNA-containing delivery vehicles intravenously in 100 μL total injection volume. Mice were euthanized after 24 hours, with serum collection at 6 and 24 hours post-injection. […]

[3] = Particle size and polydispersity (PDI) of delivery vehicles by dynamic light scattering; format: physicochemical; details: Table 5; delivery vehicle comprising the peptoid, Formulation D22, fLuc mRNA
In short: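 Delivery vehicle complexes were diluted in PBS to 2 ng/μL and measured by DLS. The cumulant fit of the correlation function gave PDI and hydrodynamic diameter in nm.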

[4] = pH 5, read-out: Hemolysis at pH 5
[5] = pH 7, read-out: Hemolysis at pH 7

CCCCCCN(CC(N)=O)C(=O)CN(CC(CC)CCCC)C(=O)CN(CC(CC)CCCC)C(=O)CN(CCCCCC)C(=O)CN(CC(CC)CCCC)C(=O)CN(CC(CC)CCCC)C(=O)CNC(CO)CO (stereo not shown) [Compound 12] (H-[N(CH(CH2OH)2)Gly][N(2-ethylhexyl)Gly][N(2-ethylhexyl)Gly][NHexGly][N(2-ethylhexyl)Gly][N(2-ethylhexyl)Gly][NHexGly]-NH2)
pKa (TNS) [1]: 6.018 | hemolysis at 45 min, 150 mM total lipid [2, 4]: 52.1% | hemolysis at 45 min, 150 mM total lipid [2, 5]: 1.5% | fLuc (luciferase) expression in vivo (BALB/c mice): top expressers; also recorded: highest overall fLuc expression | PDI [3]: 0.32 | Particle Size (nm) [3]: 91.4 nm

CCCCCCCCCCCCN(CC(=O)N(CC(=O)N(CC(=O)N(CCCCCCCCCCCC)CC(=O)N(CC(=O)N(CC(N)=O)CC(CC)CCCC)CC(CC)CCCC)CC(CC)CCCC)CC(CC)CCCC)C(=O)CNC(CO)CO (stereo not shown) [Compound 31] (H-[N(CH(CH2OH)2)Gly][Gly(N-dodecyl)][N(2-ethylhexyl)Gly][N(2-ethylhexyl)Gly][Gly(N-dodecyl)][N(2-ethylhexyl)Gly][N(2-ethylhexyl)Gly]-NH2)
pKa (TNS) [1]: 6.523 | hemolysis at 45 min, 150 mM total lipid [2, 4]: 5.8% | hemolysis at 45 min, 150 mM total lipid [2, 5]: 2% | luciferase expression in vivo, comparison of monomer order isomers (BALB/c mice): within error | PDI [3]: 0.1 | Particle Size (nm) [3]: 80.8 nm

CCCCCCCCCCCCN(CC(=O)N(CC(N)=O)CC(CC)CCCC)C(=O)CN(CCCCCC)C(=O)CN(CC(CC)CCCC)C(=O)CN(CCCCCCCCCCCC)C(=O)CN(CCCCCC)C(=O)CNC(CO)CO (stereo not shown) [Compound 34] (H-[N(CH(CH2OH)2)Gly][NHexGly][Gly(N-dodecyl)][N(2-ethylhexyl)Gly][NHexGly][Gly(N-dodecyl)][N(2-ethylhexyl)Gly]-NH2)
pKa (TNS) [1]: 6.374 | hemolysis at 45 min, 150 mM total lipid [2, 4]: 11.8% | hemolysis at 45 min, 150 mM total lipid [2, 5]: 27.6% | fLuc (luciferase) expression in vivo (BALB/c mice): top expressers | PDI [3]: 0.093 | Particle Size (nm) [3]: 118.4 nm

CCCCCCCCCCCCN(CC(=O)N(CC(=O)N(CC(=O)N(CCCCCCCCCCCC)CC(=O)N(CC(N)=O)CC(CC)CCCC)CC(CC)CCCC)CC(CC)CCCC)C(=O)CN(CC(CC)CCCC)C(=O)CNC(CO)CO (stereo not shown) [Compound 41] (H-[N(CH(CH2OH)2)Gly][N(2-ethylhexyl)Gly][Gly(N-dodecyl)][N(2-ethylhexyl)Gly][N(2-ethylhexyl)Gly][Gly(N-dodecyl)][N(2-ethylhexyl)Gly]-NH2)
pKa (TNS) [1]: 6.068 | hemolysis at 45 min, 150 mM total lipid [2, 4]: 4.5% | hemolysis at 45 min, 150 mM total lipid [2, 5]: 2.9% | fLuc (luciferase) expression in vivo (BALB/c mice): top expressers | luciferase expression in vivo, comparison of monomer order isomers (BALB/c mice): within error | PDI [3]: 0.15 | Particle Size (nm) [3]: 75.7 nm
